Assay results taken from US20100298136A1, “ACTIVE INGREDIENT COMBINATIONS WITH INSECTICIDAL PROPERTIES” (BAYER CROPSCIENCE AG, priority 2006, published 2010).

Legend:
[1] = test system: green peach aphid (Myzus persicae); experiment: Myzus persicae test (cabbage leaf dip); type: in vivo; settings: single active compound, 0.16 ppm
Procedure: (§1) Solvent: 7 parts by weight of dimethylformamide Emulgator: 2 parts by weight of alkylaryl polyglycol ether
(§2) To produce a suitable preparation of active compound, 1 part by weight of active compound is mixed with the stated amounts of solvent and emulsifier, and the concentrate is diluted with water to the desired concentration.
Cabbage leaves (Brassica oleracea) which are heavily infested by the green peach aphid (Myzus persicae) are treated by being dipped into the preparation of active compound of the desired concentration.
After the desired period of time, the kill in % is determined. 100% means that all aphids have been killed; 0% means that none of the aphids have been killed. The kill rates determined are entered into the Colby formula (see sheet 1).

[2] = test system: larvae of the mustard beetle (Phaedon cochleariae); experiment: Phaedon cochleariae larvae test (cabbage leaf dip); type: in vivo; settings: single active compound
Procedure: Phaedon cochleariae Larvae Test
as §1, §2
Cabbage leaves (Brassica oleracea) are treated by being dipped into the preparation of active compound of the desired concentration and populated with larvae of the mustard beetle (Phaedon cochleariae) while the leaves are still moist.
After the desired period of time, the kill in % is determined. 100% means that all beetle larvae have been killed; 0% means that none of the beetle larvae have been killed. The kill rates determined are entered into the Colby formula (see sheet 1).

Row | Compound | Kill in % after 6d [1] [%] | Kill in % after 4d ([2]; 20 ppm) [%] | Kill in % after 4d ([2]; 4 ppm) [%]
1 | O=[N+]([O-])/N=C1\NCCN1Cc1ccc(Cl)nc1 [imidacloprid, reference compound] | 20 | 53 | –
2 | CN(Cc1ccc(Cl)nc1)C1=CC(=O)OC1 [compound (Ia)] | 10 | 16 | 5
